What all share (type): biochemical
One test has as its target T1, HDAC8 (Homo sapiens, UniProt Q9BY41).
T1 sequence (Q9BY41 1-377): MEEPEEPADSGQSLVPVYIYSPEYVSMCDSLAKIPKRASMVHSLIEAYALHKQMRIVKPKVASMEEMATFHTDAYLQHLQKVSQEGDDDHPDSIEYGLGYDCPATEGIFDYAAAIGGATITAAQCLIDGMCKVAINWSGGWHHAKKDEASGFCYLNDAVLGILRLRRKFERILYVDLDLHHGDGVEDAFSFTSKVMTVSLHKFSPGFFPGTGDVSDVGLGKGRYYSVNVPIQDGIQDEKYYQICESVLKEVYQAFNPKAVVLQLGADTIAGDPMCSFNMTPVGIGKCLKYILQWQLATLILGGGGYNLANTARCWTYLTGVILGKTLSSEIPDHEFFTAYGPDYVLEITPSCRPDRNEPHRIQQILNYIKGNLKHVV
Briefly: HDAC enzyme inhibitory assay (fluorescence), HDAC8. On the procedure: (§1) Enzyme inhibitory assays were carried out essentially as follows. In brief, compounds were incubated with the appropriate HDAC enzyme, the appropriate HDAC substrate, bovine serum albumin, and HDAC buffer. Duplicate reactions were carried out at 37° C. for 30 min. The reactions were quenched at the end of the incubation period with the addition of HDAC developer. Reactions were further incubated for 15 min at room temperature prior to fluorescence measurement (ex 360 nm/em 460 nm). The % inhibitory activity was calculated according to the equation (F−Fb)/(Ft−Fb), where F—fluorescent intensity of compound treated wells, Fb—fluorescent intensity of blank wells, Ft—fluorescent intensity of solvent control wells. IC50 values were calculated using GraphPad Prism.

The next test deals with HDAC3 (Homo sapiens, UniProt O15379). Briefly: HDAC enzyme inhibitory assay (fluorescence), HDAC3. To be noted: for IC50 (HDAC3)/IC50 (HDAC1): selectivity ratio, table. On the procedure: as §1
The target of the next test is HDAC1 (Homo sapiens, UniProt Q13547). Briefly: HDAC enzyme inhibitory assay (fluorescence), HDAC1. On the procedure:
as §1

Another test addresses HDAC2 (Homo sapiens, UniProt Q92769). Briefly: HDAC enzyme inhibitory assay (fluorescence), HDAC2. To be noted: for IC50 (HDAC2)/IC50 (HDAC1): selectivity ratio, table. On the procedure:
as §1

The subject of the next test is class I HDACs. Nature of the test: HDAC enzyme inhibitory assay, class I HDACs overall. To be noted: class I HDACs tested (HDAC1, 2, 3, 8). The procedure: as §1, with “Reactions were further incubated for 15 min at room temperature prior to fluorescence measurement (ex 360 nm/em 460 nm).” left out
Where [1] appears, read: no inhibition up to highest concentration 1 μM.
Where [2] appears, read: read-out: IC50 HDAC8, 'No Inhibition up to 1 μM', no inhibition up to highest concentration 1 μM.

Like-named read-outs stand apart in the source and are kept apart here.

HDAC2, sequence (Q92769 whole entry, species assumed): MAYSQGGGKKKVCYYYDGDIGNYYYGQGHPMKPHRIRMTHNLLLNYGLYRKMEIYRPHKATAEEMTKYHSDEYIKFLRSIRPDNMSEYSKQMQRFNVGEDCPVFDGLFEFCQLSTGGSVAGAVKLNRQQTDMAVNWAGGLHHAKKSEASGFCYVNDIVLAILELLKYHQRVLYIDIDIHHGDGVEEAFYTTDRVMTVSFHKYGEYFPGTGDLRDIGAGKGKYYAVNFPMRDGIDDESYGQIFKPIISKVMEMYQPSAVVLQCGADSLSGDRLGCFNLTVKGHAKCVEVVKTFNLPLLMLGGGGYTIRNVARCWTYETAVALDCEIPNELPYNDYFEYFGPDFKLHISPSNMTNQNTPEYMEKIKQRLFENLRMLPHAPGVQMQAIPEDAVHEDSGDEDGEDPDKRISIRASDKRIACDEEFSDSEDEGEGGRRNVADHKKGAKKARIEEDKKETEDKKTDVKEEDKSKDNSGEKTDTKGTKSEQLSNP
HDAC3, sequence (O15379 whole entry, species assumed): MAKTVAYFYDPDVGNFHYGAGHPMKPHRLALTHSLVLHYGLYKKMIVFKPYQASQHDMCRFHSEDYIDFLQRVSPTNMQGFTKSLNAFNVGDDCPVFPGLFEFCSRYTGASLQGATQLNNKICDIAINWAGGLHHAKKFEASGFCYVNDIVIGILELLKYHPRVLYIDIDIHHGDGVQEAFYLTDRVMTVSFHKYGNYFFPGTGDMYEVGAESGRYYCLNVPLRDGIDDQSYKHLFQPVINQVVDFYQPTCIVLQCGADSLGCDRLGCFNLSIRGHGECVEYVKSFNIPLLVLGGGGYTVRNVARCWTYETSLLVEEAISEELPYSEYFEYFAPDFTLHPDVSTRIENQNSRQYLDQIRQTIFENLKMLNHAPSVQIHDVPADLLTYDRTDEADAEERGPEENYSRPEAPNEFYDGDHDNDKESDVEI
HDAC3, sequence (Q9Y618 395-489 partner limits assumed, species assumed): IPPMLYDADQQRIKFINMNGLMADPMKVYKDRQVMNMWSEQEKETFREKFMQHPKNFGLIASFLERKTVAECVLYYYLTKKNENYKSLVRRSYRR
HDAC1, sequence (Q13547 whole entry, species assumed): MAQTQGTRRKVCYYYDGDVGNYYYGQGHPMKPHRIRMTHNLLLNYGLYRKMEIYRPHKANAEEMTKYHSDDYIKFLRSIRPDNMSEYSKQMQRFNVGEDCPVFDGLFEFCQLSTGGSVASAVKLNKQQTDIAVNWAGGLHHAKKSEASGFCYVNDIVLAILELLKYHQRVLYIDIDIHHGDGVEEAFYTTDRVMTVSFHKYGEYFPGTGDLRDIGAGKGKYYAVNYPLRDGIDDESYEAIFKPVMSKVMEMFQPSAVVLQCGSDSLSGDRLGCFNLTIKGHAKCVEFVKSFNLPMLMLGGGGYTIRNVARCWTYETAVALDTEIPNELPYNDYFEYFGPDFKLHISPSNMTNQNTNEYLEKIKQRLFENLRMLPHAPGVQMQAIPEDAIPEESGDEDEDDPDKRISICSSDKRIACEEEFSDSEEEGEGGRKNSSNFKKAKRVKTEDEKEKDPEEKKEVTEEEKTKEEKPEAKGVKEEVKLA

For `C[C@@]12CSC(=N1)c1csc(n1)CNC(=O)C[C@@H](/C=C/CCS)OC(=O)[C@H](CCCN)NC2=O` [Compound 8], the IC50 against HDAC8 (setting [1]) is > 1000 nM.

For the molecule `C[C@@]12CSC(=N1)c1csc(n1)CNC(=O)C[C@@H](/C=C/CCS)OC(=O)[C@H](CCN)NC2=O` [Compound 7], the IC50 against HDAC8 (setting [1]) is > 1000 nM.

`CC12CSC(=N1)c1csc(n1)CNC(=O)CC(C=CCCS)OC(=O)C(Cc1c[nH]cn1)NC2=O` (centres unmarked) [Compound 5]: at HDAC8 (setting [2]), the IC50 was > 1000 nM. Also, on HDAC3, the IC50 was 1.1 nM, the “selectivity towards HDAC1 over HDAC3” value worked out at 5.5 fold and the “IC50 (HDAC3)/IC50 (HDAC1)” value turned out to be 5.5. Besides, half-maximal inhibition against HDAC1 (IC50) was put at 0.2 nM. Besides, at HDAC2, 1.4 nM corresponded to half-maximal inhibition (IC50), the “selectivity towards HDAC1 over HDAC2” value is recorded as 7 fold and the “IC50 (HDAC2)/IC50 (HDAC1)” value stood at 7.0.

As to `CC12CSC(=N1)c1csc(n1)CNC(=O)CC(C=CCCS)OC(=O)C(CC(=O)O)NC2=O` (centres unmarked) [Compound 6], the IC50 on HDAC8 (setting [2]) is > 1000 nM; against HDAC1, 39 nM. In addition, the “HDAC inhibition, potency in words” value with class I HDACs is “significant reduction in activity”.

Turning to `C[C@@]12CSC(=N1)c1csc(n1)CNC(=O)C[C@@H](/C=C/CCS)OC(=O)[C@H](Cc1ccc(O)cc1)NC2=O` [Compound 4], the IC50 against HDAC8 (setting [1]) is > 1000 nM.

`CC12CSC(=N1)c1csc(n1)CNC(=O)CC(C=CCCS)OC(=O)C(Cc1ccccc1)NC2=O` (centres unmarked) [Compound 3]: the concentration for half-maximal inhibition (IC50) is > 1000 nM on HDAC8 (setting [2]) and 0.29 nM at HDAC1.

For the molecule `CC(C)(C)OC(=O)NCCCC1NC(=O)C2(C)CSC(=N2)c2csc(n2)CNC(=O)CC(C=CCCS)OC1=O` (centres unmarked) [Compound 10], the IC50 on HDAC8 (read-out: IC50 (nM) HDAC8) turned out to be 790 nM; on HDAC3, 1.8 nM; on HDAC1, 0.96 nM; against HDAC2 it was 1.4 nM. Also, at HDAC3, the “IC50 (HDAC3)/IC50 (HDAC1)” value is 1.9. Besides, the “HDAC inhibition, potency in words” value in the test with class I HDACs is “more potent than 9”. Further, at HDAC2, the “IC50 (HDAC2)/IC50 (HDAC1)” value amounted to 1.5.

Turning to `CC(C)(C)OC(=O)NCCC1NC(=O)C2(C)CSC(=N2)c2csc(n2)CNC(=O)CC(C=CCCS)OC1=O` (centres unmarked) [Compound 9], the IC50 on HDAC8 (setting [2]) was > 1000 nM; against HDAC3, 4.2 nM; against HDAC1 it was 2.3 nM; against HDAC2, 3.1 nM. In addition, the “IC50 (HDAC3)/IC50 (HDAC1)” value on HDAC3 was found to be 1.8. Also, at HDAC2, the “IC50 (HDAC2)/IC50 (HDAC1)” value was determined as 1.4.

(Values after US9815852B2, “Macrocyclic compounds and methods of treatment” (University of Florida Research Foundation, Inc., priority 2014, dated 2017).)
